Read-outs that look alike come from different tables or passages of the source.
Key:
HIV-1 = experiment: Inhibition of HIV-1 replication in peripheral blood mononuclear cells, viral RNA by real-time PCR; settings: Human immunodeficiency virus 1, PBMC
Description: Equal amounts of wild-type and mutant viruses were used to infect 5×10^4 peripheral blood mononuclear cells (PBMC) in 1.5 mL medium containing DMSO or various concentrations of a test compound. A half-milliliter of the culture medium was collected from each culture at days 3, 5, and 7. Viral RNA was extracted from the collected culture supernatants and the viral titers (copies/mL) were determined by real-time PCR. The percentage of inhibition was calculated as [100−(VD/VC)]×100%, where VD and VC refer to the virus titers in the presence and absence of the test compound, respectively.

[1] = tested on: Influenza A/WSN/33 (H1N1) virus; experiment: In vitro anti-influenza virus assay (neutralization test), cytopathic effect on MDCK cells; type: cell-based; settings: MDCK cells, 72 h, read-out: IC50 (concentration reducing virus-induced cytopathic effect by 50%)
Description: Anti-influenza activities of the coumarin compounds were evaluated by measuring the ability of a test compound to inhibit the cytopathic effect induced by an influenza virus on MDCK cells. The 96-well tissue culture plates were seeded with 200 μL of MDCK cells at a concentration of 1.1×10^5 cells/mL in DMEM with 10% fetal bovine serum (FBS). The plates were incubated for 24-30 h at 37° C. and were used at about 90% confluency. Influenza A/WSN/33 (H1N1) virus (100 TCID50) was added to the cells and incubated at 35° C. for 1 h. After adsorption, the infected cell plates were overlaid with 50 μL of DMEM plus 2% FBS and a test compound with different concentrations. The plate was incubated at 35° C. for 72 h. At the end of incubation, the plates were fixed by the addition of 100 μL of 4% formaldehyde for 1 h at room temperature. After the removal of formaldehyde, the plates were stained with 0.1% crystal violet for 15 min at room temperature. The plates were washed and dried, and the density of the well was measured at 570 nm. The concentration required for a test compound to reduce the virus-induced cytopathic effect (CPE) by 50% relative to the virus control was expressed as IC50.
Compounds 1 and 95 were also tested on various influenza virus strains. Amantadine or Relenza was also tested for comparison. IC50 is defined as the concentration required for a test compound to reduce the virus-induced cytopathic effect (CPE) by 50% relative to the virus control.

[2] = tested on: herpes simplex virus type 1; experiment: In vitro assessment of anti-HSV activity, plaque reduction assay in Vero cells (Example 8); type: cell-based; settings: for SI, selectivity index = CC50/EC50: CC50/EC50, HSV-1; for EC50: Human alphaherpesvirus 1, herpes simplex virus type 1, Vero cells, plaque reduction, 72 h, read-out: EC50 (μM), 50% effective concentration
Description: Anti-HSV activities of compounds described herein were evaluated by performing a plaque reduction assay using monolayer cultures of Vero cells in 24-well culture plates. A cell monolayer was infected with herpes simplex virus type 1 (50 pfu/well) and incubated at 37° C. with 5% CO2 for 1 h. The infected cell monolayer was then washed three times with PBS and overlaid with a solution (maintenance medium containing 1% methylcellulose and various concentrations of a test compound). After 72 h of incubation at 37° C., the cell monolayer was fixed with 10% formalin and stained with 1% crystal violet. […] The minimal concentration of a compound required to reduce 50% of plaque numbers (EC50) was calculated by regression analysis of the dose-response curves generated from the plaque assay.

[3] = Cytotoxicity (CC50) of the compounds tested in the anti-HSV assay; type: cell-based; settings: African green monkey, Vero cells; Table 5; read-out: CC50 (μM), 50% cytotoxicity concentration
[4] = 72 h, read-out: Inhibition (%) Day 3
[5] = 120 h, read-out: Inhibition (%) Day 5
[6] = 168 h, read-out: Inhibition (%) Day 7
[7] = lower bound (10 nM), upper in μM

Row | Structure (SMILES) | IC50 [1, 7] [nM] | IC50 ([1]; ranges given) [nM] | also measured
1 | Cc1cn([C@H]2C[C@H](N=[N+]=[N-])[C@@H](CO)O2)c(=O)[nH]c1=O [AZT, zidovudine, reference compound] | – | – | inhibition at 0.05 µM (HIV-1; [4]): 6%; inhibition at 0.05 µM (HIV-1; [5]): 71%; inhibition at 0.05 µM (HIV-1; [6]): 88%
2 | Cc1cc(=O)oc2c1ccc1oc(C(=O)c3ccccc3)c(-c3ccc(F)cc3)c12 [Compound 134] | 10 to 999 | – | inhibition at 0.1 µM (HIV-1; [4]): 61%; inhibition at 0.1 µM (HIV-1; [5]): 91%; inhibition at 0.1 µM (HIV-1; [6]): 96%; SI, selectivity index = CC50/EC50 [2]: >3095.975; EC50 [2]: 0.0323 µM; CC50 [3]: > 100 µM
3 | Cc1cccc(-c2c(C(=O)c3ccccc3)oc3ccc4c(C)cc(=O)oc4c23)c1 [Compound 141] | 10 to 999 | – | inhibition at 0.1 µM (HIV-1; [4]): 19%; inhibition at 0.1 µM (HIV-1; [5]): 71%; inhibition at 0.1 µM (HIV-1; [6]): 97%; SI, selectivity index = CC50/EC50 [2]: >25641.03; EC50 [2]: 0.0039 µM; CC50 [3]: > 100 µM
4 | Cc1cc(=O)oc2c1ccc1oc(C(=O)c3cccc(O)c3)c(-c3ccccc3)c12 [Compound 33] | 10 to 999 | – | inhibition at 0.1 µM (HIV-1; [4]): 5%; inhibition at 0.1 µM (HIV-1; [5]): 98%; inhibition at 0.1 µM (HIV-1; [6]): 99.5%; SI, selectivity index = CC50/EC50 [2]: 235.972; EC50 [2]: 0.396 µM; CC50 [3]: 93.4 µM
5 | Cc1cc(=O)oc2c1ccc1oc(C(=O)c3cccc(OCCN(C)C)c3)c(-c3ccccc3)c12 [Compound 86] | – | 6000 to 25000 | –
6 | Cc1cc(=O)oc2c1ccc1oc(C(=O)c3ccccc3)c(C)c12 [Compound 154] | – | 1000 to 5900 | –
7 | Cc1cc(=O)oc2c1ccc1oc(C(=O)c3cccs3)c(-c3ccc(Br)cc3)c12 [Compound 254] | – | 1000 to 5900 | –
8 | Cc1cc(=O)oc2c1ccc1oc(C(=O)c3cccc(Cl)c3)c(-c3ccccc3)c12 [Compound 48] | 10 to 999 | – | –
9 | Cc1cccc(C(=O)c2oc3ccc4c(C)cc(=O)oc4c3c2-c2ccccc2)c1 [Compound 40] | 10 to 999 | – | –
10 | Cc1cc(=O)oc2c1ccc1oc(C(=O)c3cccc(Cl)c3)c(-c3ccc(Br)cc3)c12 [Compound 217] | – | 6000 to 25000 | –
11 | Cc1cc(=O)oc2c1ccc1oc(C(=O)c3ccccc3)c(-c3ccccc3Cl)c12 [Compound 135] | 10 to 999 | – | –
12 | Cc1cc(=O)oc2c1ccc1oc(C(=O)c3ccc(F)cc3)c(-c3ccccc3)c12 [Compound 46] | 10 to 999 | – | –
13 | CC(=O)OCC1OC(OCCCOc2cccc(C(=O)c3oc4ccc5c(C)cc(=O)oc5c4c3-c3ccccc3)c2)C(OC(C)=O)C(OC(C)=O)C1OC(C)=O (centres unmarked) [Compound 196] | – | 6000 to 25000 | –
14 | Cc1cc(=O)oc2c1ccc1oc(C(=O)c3cccc(C#N)c3)c(-c3ccccc3)c12 [Compound 42] | – | 1000 to 5900 | –
15 | Cc1cc(=O)oc2c1ccc1oc(C(=O)c3ccccc3)c(-c3cccc(C#N)c3)c12 [Compound 143] | 10 to 999 | – | –
16 | Cc1ccccc1C(=O)c1oc2ccc3c(C)cc(=O)oc3c2c1-c1ccccc1 [Compound 39] | – | 6000 to 25000 | –
17 | Cc1cc(=O)oc2c1ccc1oc(C(=O)c3cccc(OCCCCCCO[Si](C)(C)C(C)(C)C)c3)c(-c3ccccc3)c12 [Compound 193] | – | 1000 to 5900 | –
18 | Cc1cc(=O)oc2c1ccc1oc(C(=O)c3ccccc3)c(-c3cccc(Br)c3)c12 [Compound 139] | 10 to 999 | – | –
19 | Cc1cc2oc(C(=O)c3ccccc3)c(-c3ccccc3)c2c2oc(=O)ccc12 [Compound 4] | – | 6000 to 25000 | –
20 | COc1cccc(C(=O)c2oc3ccc4c(C)cc(=O)oc4c3c2-c2cccc(C)c2)c1 [Compound 247] | 10 to 999 | – | –
21 | COc1cccc(C(=O)c2oc3ccc4c(C)cc(=O)oc4c3c2-c2cccc(Br)c2)c1 [Compound 256] | 10 to 999 | – | –
22 | Cc1cc(=O)oc2c1ccc1oc(C(=O)c3cccc(OCCCCl)c3)c(-c3ccccc3)c12 [Compound 74] | 10 to 999 | – | –
23 | Cc1cc(=O)oc2c1ccc1oc(C(=O)c3ccc([N+](=O)[O-])cc3)c(-c3ccccc3)c12 [Compound 51] | – | 6000 to 25000 | –
24 | Cc1cc(=O)oc2c1ccc1oc(C(=S)c3ccccc3)c(-c3ccccc3)c12 [Compound 166] | 10 to 999 | – | –

Row | Structure (SMILES) | IC50 [1, 7] [nM] | IC50 ([1]; ranges given) [nM] | also measured
25 | CCCCCCCCOc1cccc(C(=O)c2oc3ccc4c(C)cc(=O)oc4c3c2-c2ccccc2)c1 [Compound 243] | – | 6000 to 25000 | –
26 | Cc1cc(=O)oc2c1ccc1oc(C(=O)c3cccc(OCCCOC4OC(CO)C(O)C(O)C4O)c3)c(-c3ccccc3)c12 (centres unmarked) [Compound 197] | – | 6000 to 25000 | –
27 | Cc1cc(=O)oc2c1ccc1oc(C(=O)c3cccc(Cl)c3)c(-c3ccc(F)cc3)c12 [Compound 222] | 10 to 999 | – | –
28 | C=CCOc1cccc(C(=O)c2oc3ccc4c(C)cc(=O)oc4c3c2-c2ccccc2)c1 [Compound 76] | 10 to 999 | – | –
29 | Cc1cc(=O)oc2c1ccc1oc(C(=O)c3ccc(F)cc3F)c(-c3ccccc3)c12 [Compound 59] | 10 to 999 | – | –
30 | Cc1cc(=O)oc2c1ccc1oc(C(O)c3ccccc3)c(-c3ccccc3)c12 (centres unmarked) [Compound 172] | 10 to 999 | – | –
31 | C=CCCCOc1cccc(C(=O)c2oc3ccc4c(C)cc(=O)oc4c3c2-c2ccccc2)c1 [Compound 78] | 10 to 999 | – | –
32 | CC(=O)OCC1C(OCCOc2cccc(C(=O)c3oc4ccc5c(C)cc(=O)oc5c4c3-c3ccccc3)c2)OC(OC(C)=O)C(OC(C)=O)C1OC(C)=O (centres unmarked) [Compound 194] | – | 6000 to 25000 | –
33 | CCCCCOc1cccc(C(=O)c2oc3ccc4c(C)cc(=O)oc4c3c2-c2ccccc2)c1 [Compound 71] | 10 to 999 | – | –
34 | Cc1cc(=O)oc2c1ccc1oc(C(=O)c3ccccc3F)c(-c3ccccc3)c12 [Compound 44] | 10 to 999 | – | –
35 | Cc1cc(=O)oc2c1ccc1oc(C(=O)c3ccccc3)c(-c3ccc(Br)cc3)c12 [Compound 140] | 10 to 999 | – | inhibition at 0.1 µM (HIV-1; [4]): 19%; inhibition at 0.1 µM (HIV-1; [5]): 65%; inhibition at 0.1 µM (HIV-1; [6]): 93%; SI, selectivity index = CC50/EC50 [2]: >291.545; EC50 [2]: 0.343 µM; CC50 [3]: > 100 µM
36 | Cc1cc(=O)oc2c1ccc1oc(C(=O)c3cccc(OC(=O)C4CC4)c3)c(-c3ccccc3)c12 [Compound 181] | – | 1000 to 5900 | –
37 | Cc1cc(=O)oc2c1ccc1oc(C(=O)c3cccc(OCCCN4CCCCC4)c3)c(-c3ccccc3)c12 [Compound 84] | – | 6000 to 25000 | –
38 | Cc1cc(=O)oc2c1ccc1oc(C(=O)c3ccc(F)c(F)c3)c(-c3ccccc3)c12 [Compound 60] | 10 to 999 | – | –
39 | COc1ccc(-c2c(C(=O)c3ccccc3)oc3ccc4c(C)cc(=O)oc4c23)cc1 [Compound 248] | – | 6000 to 25000 | –
40 | Cc1cc(=O)oc2c1ccc1oc(C(=O)c3cccc(OCCOCCOCCO)c3)c(-c3ccccc3)c12 [Compound 177] | – | 6000 to 25000 | –
41 | Cc1cc(=O)oc2c1ccc1oc(C(=O)c3cccc(OCCCCCl)c3)c(-c3ccccc3)c12 [Compound 75] | 10 to 999 | – | –
42 | CCCCCCOc1cccc(C(=O)c2oc3ccc4c(C)cc(=O)oc4c3c2-c2ccccc2)c1 [Compound 72] | 10 to 999 | – | –
43 | Cc1cc(=O)oc2c1ccc1oc(C(=O)c3ccc4ccccc4c3)c(-c3ccc(F)cc3)c12 [Compound 220] | – | 1000 to 5900 | –
44 | Cc1cc(=O)oc2c1ccc1oc(C(=O)c3cccc(OCCCCN4CCOCC4)c3)c(-c3ccccc3)c12 [Compound 82] | – | 1000 to 5900 | –
45 | Cc1cc(=O)oc2c1ccc1oc(C(=O)c3nccs3)c(-c3ccccc3)c12 [Compound 107] | 10 to 999 | – | –
46 | COc1cccc(C(=O)c2oc3ccc4c(C)cc(=O)oc4c3c2-c2ccccc2F)c1 [Compound 245] | 10 to 999 | – | –
47 | Cc1cc(=O)oc2c1ccc1oc(C(=O)c3cccc(OCC4CC4)c3)c(-c3ccccc3)c12 [Compound 179] | 10 to 999 | – | –
48 | Cc1cc(=O)oc2c1ccc1oc(C(=O)c3cccc(OCCCCI)c3)c(-c3ccccc3)c12 [Compound 236] | – | 1000 to 5900 | –

From patent US20090312406A1, “COUMARIN COMPOUNDS AND THEIR USE FOR TREATING VIRAL INFECTION” (priority 2008, published 2009)
